{"source": "patent US20160175482A1", "about": "“COMPOSITION AND DELIVERY SYSTEM” (LOCATE THERAPEUTICS LIMITED, priority 2013, published 2016)", "origin": "cited, not measured here", "data": [{"smiles": "Cc1ccc(C)c(N=Nc2cc(C)c(N=Nc3c(O)ccc4ccccc34)cc2C)c1", "note": "[Oil Red-O]", "values": [{"measurement": "log P", "result": 6.85}]}]}
